Values quoted from earlier work as cited in US20240409577A1, “FORMATION OF AMIDINES AND INTRAMOLECULAR REACTION THEREOF” (priority 2023, published 2024).

Details: acid used for the imidazolone transformation

OC(C(F)(F)F)C(F)(F)F [HFIP, hexafluoroisopropanol]
pKa: 8.3
